The structures appear in SMILES notation.

Data set [1] deals with other tumor types (appendiceal cancer, unknown primary cancer). Kind of data set: Phase 1 tumor response by RECIST 1.1, patients with other tumor types. Type of data set: in vivo, human. The note with it: 2 evaluable patients with appendiceal cancer. The text has this: A complete response (CR) is disappearance of all target lesions and any pathological lymph nodes have a reduction in short axis to less than 10 mm. A partial response (PR) is at least a 30% decrease in the sum of diameters of target lesions, taking as reference the baseline sum diameters. A progressive disease is at least a 20% increase in the sum of diameters of target lesions, taking as reference the smallest sum on study (including the baseline sum if that is the smallest on study), and there must be an absolute increase of at least 5 mm in addition to the relative increase of 20%. A stable disease is neither sufficient shrinkage to qualify for PR nor sufficient increase to qualify for PD. […] The tumor size can be measured by radiographic scan.
FIG. 2. […] Target lesions are measurable lesions defined by RECIST 1.1. Non-measurable lesions, as defined by RECIST 1.1, are considered non-target lesions. A PR is defined as at least a 30% decrease in the sum of the diameters of target lesions using the baseline sum of diameters as a reference. […]
As of the data cutoff of Jul. […] The tumor types of two patients were re-classified after the cutoff: 1 patient who was initially recorded as having NSCLC had unknown primary cancer, and 1 patient who was initially recorded as having other tumor types had NSCLC. […]
Tumor response was evaluated using RECIST 1.1. […]

A further data set concerns KRAS p.G12C tumors. The experiment in a line: Preclinical anti-tumor efficacy. Format: in vivo. To be noted: immune-competent mice. The source says:
KRAS is the most frequently mutated oncogene in human cancer and encodes a key signaling protein in tumors.

The nature of data set [2]: Phase 1 safety and treatment exposure, all enrolled patients. Format: in vivo. The source says:
A subject undergoing a therapy is monitored for adverse events (AE) during the course of the therapy. A treatment related AE is an AE that is related to the treatment drug. A treatment emergent AE is one that a subject develops undergoing the treatment that was not present prior to start of therapy. In some cases, the treatment emergent AE is not or suspected not to be related to the treatment itself. AEs are characterized as one of five grades—grade 1 is a mile AE; grade 2 is a moderate AE; grade 3 is a severe AE; grade 4 is a life-threatening or disabling AE; and grade 5 is death related to AE.
The grading of AEs is based on the guidelines provided in the CTCAE version 5.0. AEs for DLT assessment:
Hematological toxicity: Febrile neutropenia; Neutropenic infection; Grade 4 neutropenia; Grade≥3 thrombocytopenia for>7 days; Grade 3 thrombocytopenia with grade≥2 bleeding; Grade 4 thrombocytopenia; Grade 4 Anemia Non-hematological toxicity Grade≥4, vomiting or diarrhea; Grade 3 diarrhea or grade 3 vomiting lasting more than 3 days despite optimal medical support; Grade≥3 nausea for 3 days or more despite optimal medical support; Any other grade≥3 AE

Data set [3] in a line: Phase 1 pharmacokinetics of Compound A at 960 mg once daily. Type of data set: in vivo, human. To be noted: patients.
The mark [4] stands for this setting: 76 enrolled patients, all doses.

`C=CC(=O)N1CCN(c2nc(=O)n(-c3c(C)ccnc3C(C)C)c3nc(-c4c(O)cccc4F)c(F)cc23)[C@@H](C)C1` [Compound A, 4-((S)-4-acryloyl-2-methylpiperazin-1-yl)-6-fluoro-7-(2-fluoro-6-hydroxyphenyl)-1-(2-isopropyl-4-methylpyridin-3-yl)pyrido[2,3-d]pyrimidin-2(1H)-one]: the tumor response entry in data set [1] was “PR (unconfirmed) and SD”. Moreover, the “anti-tumor effect in combination with immune checkpoint inhibition” value in the data set with KRAS p.G12C tumors was “durable cures”. The “deaths related to treatment” value in data set [2] (7 deaths among 76 enrolled patients) is on record as “none”. Moreover, in data set [2] (setting [4]), the “patients with treatment-related grade 3 AEs” value came out at 7 patients and the “patients with treatment-related grade 3 AEs, percent” value came to 9.2%. The tolerability entry in data set [2] (consistent across all doses) is listed as “well tolerated with mild treatment-related toxicities”. For the same molecule, the “treatment-related AEs higher than grade 3 or cumulative toxicities” value in data set [2] (extended treatment, all doses) is reported as “no treatment-related AEs higher than grade 3 or cumulative toxicities were observed”. Further, in data set [3], the “24-hour area under the curve” value worked out at 65300 ng·h/mL and the “time of peak exposure after administration” value was “around 2 hours”.

Source of the values: US20230028414A1, “DOSING REGIMEN OF KRAS G12C INHIBITOR” (AMGEN INC., priority 2019, published 2023).
